Entries after “also recorded” stand apart in the source; their conditions may differ.
What was measured:
11β-HSD1 [1] = molecular target: T1, 11β-HSD1 (Rattus norvegicus, UniProt P16232); assay: 11β-HSD1 reductive activity in rat liver microsomes; type: biochemical
T1 construct: from tissue; host or cells: liver microsomes of male Sprague Dawley rats, prepared in house
Method: (§1) Preparation of Rat and Mouse Liver and Kidney Microsomes
The liver and kidney microsomes were prepared as previously described ([Guo et al., 2012]). Briefly, the tissue was homogenized in […] phosphate buffered saline (PBS) containing 0.25 M sucrose, and the nuclei and large cell debris were removed by centrifugation at 1500 g for 10 min. The supernatant was transferred to a tube and the mitochondria were removed by centrifugation at 10, 000 × g for 30 min. The supernatant was transferred to an ultracentrifuge tube and centrifuged twice at 105,000 × g, the resulting microsomal precipitate was collected. The protein content was measured by the BCA kit according to the manufacturer’s instruction. The protein concentration was adjusted to 20 mg/ml. These proteins were used to measure 11β-HSD1 and 11β-HSD2 activities. […]
The reductive activity of 11β-HSD1 in rat, mouse, and human liver microsomes was measured as previously described ([Ge et al., 2005]). […] 11β-HSD1 activity was measured using 11-DHC or cortisone as a substrate. […] The inhibitory ability of the chemical relative to the control (DMSO solvent) was measured. […] The steroids in chloroform and methanol (90:10, v/v) were chromatographically separated on a thin layer plate, and radioactivity was measured using a scanning radiometer (System AR2000, Bioscan Inc., Washington, DC, United States). […]

11β-HSD1 [2] = molecular target: T1, 11β-HSD1; assay: 11β-HSD1 activity in intact rat Leydig cells; type: cell-based; details: read-out: IC50 rat Leydig cell 11β-HSD1
Method: Isolation of Rat Adult Leydig Cells
Leydig cells were isolated as previously described ([Ge et al., 2006]). Briefly, after a week of adjustment, eighteen 35-day-old Sprague Dawley rats were killed by asphyxiation with carbon dioxide (CO2). The testis was removed. The testis was perfused with collagenase solution through the testicular artery. The testis was digested with collagenase and DNase for 15 min, and the digested cells were filtered with nylon mesh, and the cells were separated under a Percoll gradient. The cells with density of 1.070–1.088 g/ml were collected and washed. The purity of the Leydig cell fraction was evaluated by histochemical staining of 3β-hydroxysteroid dehydrogenase using 0.4 mM etiocholanolone as a steroid substrate and 2 mM NAD + as a cofactor and tetranitroblue tetrazolium as the H^+ acceptor as previously described ([Payne et al., 1980]). More than 95% of Leydig cells are strongly stained. […] In brief, an aliquot of 10^5 cells/ml in a 0.5 ml test tube was mixed with 0.1 ml of 0.4% trypan blue at room temperature for 5 min and the cells were then loaded into a hemocytometer for counting, and the numbers of non-viable (staining) and viable (not stained) cells were counted. Viability was calculated as the percentage of viable cells divided by the total number of cells, and the viability of Leydig cells (intact Leydig cells) was over 99%. […]

11β-HSD2 = molecular target: T2, 11β-HSD2 (Rattus norvegicus, UniProt P50233); assay: 11β-HSD2 activity in rat kidney microsomes; type: biochemical; details: 100 μM
T2 construct: from tissue; host or cells: rat kidney microsomes prepared in house
T2 sequence (P50233 1-400): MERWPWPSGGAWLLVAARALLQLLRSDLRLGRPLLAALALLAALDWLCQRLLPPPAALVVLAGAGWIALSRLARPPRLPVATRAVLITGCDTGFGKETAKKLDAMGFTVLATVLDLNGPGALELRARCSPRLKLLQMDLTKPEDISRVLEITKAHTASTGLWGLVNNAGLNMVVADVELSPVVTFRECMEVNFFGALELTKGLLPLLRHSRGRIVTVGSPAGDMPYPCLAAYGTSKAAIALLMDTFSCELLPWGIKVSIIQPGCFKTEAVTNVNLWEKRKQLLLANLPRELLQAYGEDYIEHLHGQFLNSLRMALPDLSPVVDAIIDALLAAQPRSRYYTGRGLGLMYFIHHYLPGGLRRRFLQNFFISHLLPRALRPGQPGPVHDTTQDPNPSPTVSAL
Method: as §1
The liver and kidney microsomes were prepared as previously described ([Guo et al., 2012]). Briefly, the tissue was homogenized in […] phosphate buffered saline (PBS) containing 0.25 M sucrose, and the nuclei and large cell debris were removed by centrifugation at 1500 g for 10 min. The supernatant was transferred to a tube and the mitochondria were removed by centrifugation at 10, 000 × g for 30 min. The supernatant was transferred to an ultracentrifuge tube and centrifuged twice at 105,000 × g, the resulting microsomal precipitate was collected. The protein content was measured by the BCA kit according to the manufacturer’s instruction. The protein concentration was adjusted to 20 mg/ml. These proteins were used to measure 11β-HSD1 and 11β-HSD2 activities.
Measurement of 11β-HSD2 Activity in Rat, Mouse, and Human Kidney Microsomes
The 11β-HSD2 assay was based on rat, mouse, and human kidney microsomes, as previously described ([Ge et al., 2005]). In brief, the 11β-HSD2 activity assay tube contained 25 nM substrate (cortisol for humans, CORT for rats and mice). […] The percentage conversion of cortisol to cortisone (humans) or CORT to 11DHC (rats and mice) was calculated by dividing the radioactive count of an 11keto-steroid product by the total count associated with both substrate and product.

T1 sequence (P16232 whole entry): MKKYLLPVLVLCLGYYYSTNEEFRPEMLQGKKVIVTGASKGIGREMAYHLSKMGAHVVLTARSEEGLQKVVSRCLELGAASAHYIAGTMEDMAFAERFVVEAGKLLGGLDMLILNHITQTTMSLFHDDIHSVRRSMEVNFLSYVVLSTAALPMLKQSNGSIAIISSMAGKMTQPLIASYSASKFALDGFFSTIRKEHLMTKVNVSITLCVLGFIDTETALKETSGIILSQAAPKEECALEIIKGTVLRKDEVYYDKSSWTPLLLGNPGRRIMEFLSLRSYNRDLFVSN

O=C1/C(=C/c2c(F)cccc2F)CC/C1=C\c1c(F)cccc1F [WZS08, (2E,5E)-2,5-bis(2,6-difluorobenzylidene) Cyclopentanone]
inhibition at 100 µM (11β-HSD1 [1]; 100 μM, initial screening, read-out: 11β-HSD1 inhibition, rat enzyme): 93.9 ± 0.42% | IC50 (11β-HSD1 [1]; rat liver microsomes, 25 nM 11DHC, NADPH): 378 nM | IC50 (11β-HSD1 [2]): 170 ± 3.8 nM | effect on 11β-HSD2 activity, rat (11β-HSD2): did not affect; also recorded: almost no effect
